Like-named read-outs stand apart in the source and are kept apart here.
Legend:
[1] = Plasma pharmacokinetics of tipifarnib after oral, 2-hour i.v. and continuous i.v. administration in cancer patients; format: in vivo, human; conditions: for systemic exposure (AUC0-10h) lower relative to 200 mg oral dose: Day 4, cohort 1 (3 subjects); for systemic exposure lower relative to 200 mg oral dose: cohort 2 (3 subjects); for bioavailability: oral, dose-normalized AUC0-10h, fed, read-out: mean absolute bioavailability of the oral tablet; for bioavailability / Tmax: 200 mg; for Tmax: po
Description: The objective of the first (dose-determination) phase of the study was to identify an intravenous regimen that was well tolerated. It was expected that this regimen would be equivalent to 50% -60% of a clinically relevant oral dose (200 mg), based on a prior pilot determination of absolute bioavailability in healthy male volunteers. A first cohort of 3 subjects received the following uninterrupted 4-day consecutive treatments of tipifarnib: 30 mg as a 2-hour intravenous infusion b.i.d. on Day 1-4, followed by 200 mg as oral administration b.i.d. on Day 5-8, followed by 60 mg per day as a continuous intravenous infusion on Day 9-12. Similarly, a second cohort of 3 subjects received similar 4-day regimens of tipifarnib: 60 mg as a 2-hour intravenous infusion b.i.d., followed by 200 mg as oral administration b.i.d., followed by 120 mg per day as a continuous intravenous infusion. There was no washout period between each of the 4-day oral or i.v. treatments described.
The second (i.v.-oral bridging) phase of the study was completed in separate group of patients. Systemic exposure to tipifarnib following the selected 2-hour and continuous intravenous regimens (from the previous dose-determination phase) was compared to exposure after a 200-mg b.i.d. oral regimen. The bridging phase was initiated when at least 2 subjects of the second cohort of the dose-determination phase were observed without DLT until Day 21. A total of 24 subjects were randomly assigned in a 1:1 ratio to one of two treatment sequences at the chosen intravenous regimens, in order to account for potential sequence-effects.
Sequence 1: 100 mg b.i.d. administered as a 2-hour intravenous infusion on Days 1-4, followed by 200 mg oral tablets b.i.d. on Days 5-8, then 200 mg/day administered as a continuous 4-day intravenous infusion on Days 9-12.
Sequence 2: 200 mg/day administered as a continuous 4-day intravenous infusion on Days 1-4, followed by 200 mg oral tablets b.i.d. on Days 5-8, then 100 mg b.i.d. administered as a 2-hour intravenous infusion on Days 9-12.
In both the dose-determination and the bridging phases, pharmacokinetic sampling was performed during a 10-hour period from the start of the morning dose on Day 4 of each treatment. Whole blood samples were taken immediately before, and 0.5, 1, 2, 3, 4, 6, 8, and 10 hours after oral administration. For 2-hour intravenous infusion, blood samples were taken immediately before, and 1, 2 (i.e. just before the end of the infusion), 2.25, 3, 4, 6, 8, and 10 hours after dosing. Blood samples were taken immediately before, and 2, 4, 6, 8, and 10 hours after the start of the continuous intravenous infusion.
A minimum of 7 mL of blood for each PK sample was collected. Whole blood samples were immediately placed on ice and centrifuged within 2 hours after collection (10 min, 1000×g). Separated plasma was frozen immediately at ≦−18° C. until assayed.
Plasma samples were thawed at room temperature, and individual sample was analyzed for tipifarnib using a previous published method. To 1-ml aliquots of human plasma, 200 ng of the internal standard (R121550, a structural analog) was spiked. After adding 1 ml of NaOH (0.1M), the samples were extracted twice with 4 ml of heptane containing 10% of isoamylalcohol. The combined organic phases were back-extracted with 2 ml of HCl (2M). After alkalization with concentrated ammonia, the aqueous phase was extracted once with 5 ml of heptane containing 5% of isoamylalcohol. This extract was evaporated under nitrogen at 65° C. and the residue dissolved in 100 microliters of injection solvent (Ammoniumacetate 0.01M/acetonitile/methanol; 50/25/25). A 15 μl extract was injected into an HPLC with UV detection (Agilent) at a wavelength of 240 nm. Separation was performed on a 10 cm×4.6 mm chromatographic column, packed with 3 μm C 18 BDS-Hypersil (Alltech). […]

plasma proteins [2] = experiment: Tipifarnib protein binding analysis, equilibrium dialysis of patient plasma (ex vivo); format: in vitro ADME, human
Description: Tipifarnib was specifically labeled with [^14C] at the asymmetric carbon atom. A 7-mL blood sample was taken from 24 patients at 4 hours after the start of the continuous intravenous infusion of tipifarnib on Day 4. The plasma samples were fortified with [^14C]-tipifarnib at 500 ng/ml. The fortified plasma samples were subjected to equilibrium dialysis against a 0.067 M phosphate buffer, pH 7.17 at 37° C. for 4 hours in a Dianorm system with identical macro-1 Teflon cells and Diachema 10.17 dialysis membranes (MW cut-off 10,000). Radioactivity levels were measured in duplicate 100-μl aliquots of the fortified plasma before and after equilibrium dialysis, and in 1000-μl duplicate aliquots of the contents of buffer compartments of the dialysis cells admixed with methanol after dialysis in a Packard Tri-Carb 1900 TR liquid scintillation spectrometer. The total protein concentration was determined with a colorimetric biureet method, kit Roche Diagnostics 1929917. The albumin concentration was determined with a colorimetric bromocresol green method kit Roche Diagnostics 1970909. The α1-acid glycoprotein concentration was determined with an immuno-turbidimetric method, kit Roche Diagnostics 1557602. All these tests were performed on a Roche Hitachi Modular analyser. […]

plasma proteins [3] = experiment: In vitro plasma protein binding, plasma from 5 healthy men; format: in vitro ADME, human
Description: The value of the plasma protein binding of tipifarnib from the ex vivo measurement on cancer subjects in this trial is very close to that (99.22% bound) obtained from an in vitro experiment with the plasma samples from 5 healthy men. […]

[4] = Clinical assessment: toxicity (CTC version 2.0), dose-limiting toxicity; format: in vivo, human
Description: The second and third subjects in the cohort were to be started only when the first subject completed the first intravenous and the oral treatment (i.e., 8-day period) without a dose-limiting toxicity (DLT). If a DLT occurred in 1 of 3 subjects of either the first or the second cohort, 3 supplementary subjects were to be added to that cohort. If more than 1 subject experienced DLT (either in the first 3 subjects or in the extended cohort of 6 subjects), dose escalation was to be terminated, and other subjects in that cohort had to complete their therapy at the same dose.
(§1) Complete patient history was taken, and a physical examination (including vital signs), hematological tests, and clinical chemistry tests were performed at baseline and during treatment. To assess cardiovascular safety, twelve-lead E.C.G.s were recorded at screening, during Cycle 1 and at the end of therapy. Although objective tumor response was not the primary objective of this study, an attempt was made to obtain appropriate measurements to assess response. All adverse events and clinically relevant laboratory abnormalities were graded according to Common Toxicity Criteria (CTC version 2.0)

advanced solid tumor = experiment: Clinical assessment: efficacy / tumor response; format: in vivo, human
Description: as §1

[5] = Solubility and hydrolytic stability of tipifarnib in water; format: physicochemical
Description: Tipifarnib is a base with very good water solubility at acidic pH. It hydrolyzes to R110127, wherein the amine functionality is replaced by a hydroxy functionality. […] R110127 has the following structure: [drawing 2]
[…] is added to Formulation 1 to solubilize tipifarnib when it is reconstituted with Formulation 2. The pH value of the reconstituted solution is ˜4.5. At this pH value tipifarnib precipitates if no Hydroxypropyl-β-cyclodextrin is present. The risk of local irritation during infusion into a peripheral vein (arm) is at an acceptable level at this pH value.

[6] = oral 50- to 500-mg b.i.d.; cited from earlier work
[7] = cited from earlier work
[8] = oral administration, cited from earlier work
[9] = molecular target: human farnesyltransferase (FTase) (Homo sapiens, UniProt P49354+P49356); conditions: in vitro and in vivo; cited from earlier work
human hepatocytes = conditions: in vitro; cited from earlier work
CYP3A4 = CYP3A4 (Homo sapiens, UniProt P08684); conditions: compared to CYP2C19, CYP2A6, CYP2D6, CYP2C8/9/10; cited from earlier work
[10] = 2-hour i.v. infusion 100 mg b.i.d. versus oral 200 mg b.i.d.

Chain of CYP3A4 (P08684 whole entry, the tested form may be a part): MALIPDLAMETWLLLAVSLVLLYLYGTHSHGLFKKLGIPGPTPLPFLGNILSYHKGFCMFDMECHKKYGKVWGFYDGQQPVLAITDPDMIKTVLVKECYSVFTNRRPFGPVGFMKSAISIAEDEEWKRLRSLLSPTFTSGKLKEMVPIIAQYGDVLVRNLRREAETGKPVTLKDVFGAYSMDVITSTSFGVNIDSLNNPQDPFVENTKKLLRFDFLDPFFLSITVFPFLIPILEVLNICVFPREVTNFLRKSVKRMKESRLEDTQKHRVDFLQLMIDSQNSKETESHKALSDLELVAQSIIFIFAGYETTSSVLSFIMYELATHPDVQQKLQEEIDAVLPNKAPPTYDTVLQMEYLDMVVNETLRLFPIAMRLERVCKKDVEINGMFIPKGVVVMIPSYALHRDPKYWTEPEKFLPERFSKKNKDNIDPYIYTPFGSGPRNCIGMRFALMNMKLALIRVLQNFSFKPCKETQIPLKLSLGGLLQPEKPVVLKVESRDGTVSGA

Cn1cncc1[C@@](N)(c1ccc(Cl)cc1)c1ccc2c(c1)c(-c1cccc(Cl)c1)cc(=O)n2C [tipifarnib]
systemic exposure (AUC0-10h) lower relative to 200 mg oral dose ([1]; 30 mg b.i.d. 2-hour intravenous infusion): approximately 64%
systemic exposure lower relative to 200 mg oral dose ([1]; 60 mg b.i.d. 2-hour intravenous infusion): approximately 47%
systemic exposure (AUC0-10h) lower relative to 200 mg oral dose ([1]; 60 mg per day continuous intravenous infusion): ~59%
systemic exposure lower relative to 200 mg oral dose ([1]; 120 mg per day continuous infusion): ~46%
AUC0-10h higher than after oral administration [1, 10]: 19.3%
Cmax higher than after oral administration [1, 10]: 48.0%
bioavailability ([1]; human, plasma, oral versus 2-hour i.v.): 46.3%
bioavailability ([1]; human, plasma, oral versus continuous intravenous infusion): 40.9%
Tmax ([1]; human, plasma, oral 200 mg b.i.d. for 4 days, read-out: time of maximum plasma concentration (tmax)): ~2 h
Tmax ([1]; human, plasma, oral 200 mg b.i.d., 29 subjects, read-out: range of tmax): 0.5 to 3 h
AUC(0-t) ([1]; human, plasma, oral 200 mg b.i.d., 2-hour i.v. 100 mg b.i.d., continuous i.v. 200 mg/day, read-out: range of mean AUC0-10h values across the 3 treatments): 3990 to 4490 ng·h/mL
AUC(0-t) ([1]; human, plasma, oral 200 mg b.i.d., Day 4, n=24, read-out: arithmetic mean AUC0-10h (±SD)): 3990 ± 1670 ng·h/mL
Cmax ([1]; human, plasma, oral 200 mg b.i.d., Day 4, n=24, read-out: arithmetic mean Cmax (±SD)): 994 ± 487 ng/mL
arithmetic mean AUC0-10h (±SD) ([1]; oral 200 mg b.i.d., Day 4, n=24): 3990 ng·h/mL
mean free (unbound) fraction (plasma proteins [2]; plasma drawn 4 hours after start of continuous i.v. infusion, Day 4): 0.62%
dependence of unbound fraction on total drug plasma concentration (plasma proteins [2]; range 211 ng/mL to 812 ng/mL): independent of total drug plasma concentration
fraction unbound at 4 h, 1000 ng/mL (plasma proteins [3]; male, human, pH 7.17, blank plasma fortified with 14C-tipifarnib at 1000 ng/mL, read-out: plasma protein binding (bound) (converted)): 0.0078
dependence of in vitro plasma protein binding on total tipifarnib concentration (plasma proteins [3]; range 100 to 5000 ng/mL): independent of the total tipifarnib concentrations
febrile neutropenia, subjects ([4]; 1 subject): 3%
Grade 3 or 4 drug-related neutropenia, patients ([4]; 9/30 patients): 30%
phlebitis ([4]; IV bolus via peripheral venous access, not observed via central vein): 3 subjects
dose limiting toxicity ([4]; cohort 1: 30 mg b.i.d. 2-hour i.v., 60 mg per day continuous i.v.): No dose limiting toxicity
dose limiting toxicity (DLT) ([4]; cohort 2: 60 mg b.i.d. 2-hour i.v., 120 mg per day continuous i.v.): no DLT was observed
adverse events associated with intravenous administration ([4]; intravenous tipifarnib): No unusual adverse events
drug-related anorexia ([4]; mainly grade 1): 20%
drug-related diarrhea ([4]; mainly grade 1): 13%
drug-related fatigue ([4]; mainly grade 1): 60%
drug-related nausea ([4]; mainly grade 1): 40%
drug-related vomiting ([4]; mainly grade 1): 17%
objective tumor responses (advanced solid tumor; 31 subjects evaluable): No objective tumor responses were observed
stable disease for at least 6 months (advanced solid tumor; 31 subjects evaluable): 14 subjects
duration of hematological improvement (durable increase in hemoglobin) (advanced solid tumor; one subject with MDS): 8 months
water solubility ([5]; acidic pH): very good
rate of hydrolytic degradation to R110127 ([5]; aqueous): lowest at acidic condition but still very fast
solubility in reconstituted solution ([5]; pH ~4.5, without hydroxypropyl-β-cyclodextrin): precipitates
peak concentration range [6]: 68 to 1458 ng/mL
mean AUC0-10h ([7]; 150 mg orally twice daily): 2495 ng·h/mL
mean Cmax ([7]; 150 mg orally twice daily): 443 ng/mL
mean AUC0-10h ([7]; 300 mg orally twice daily): 4674 ng·h/mL
mean Cmax ([7]; 300 mg orally twice daily): 974 ng/mL
concentrations of unchanged tipifarnib lower than total radioactivity concentrations ([8]; deproteinized samples): approximately 8 times
concentrations of unchanged tipifarnib lower than total radioactivity concentrations ([8]; nonprecipitated samples): 42 times
oral dose recovered in faeces as tipifarnib [8]: less than 7%
unchanged drug excreted in the urine [8]: No unchanged drug was excreted in the urine
inhibition of human farnesyltransferase (FTase) [9]: potent and selective nonpeptidomimetic competitive inhibitor
metabolism in human hepatocytes (human hepatocytes): undergoes direct glucoronidation
CYP450 metabolic pathway (CYP3A4): CYP3A4 was a predominant metabolic pathway

Source: patent publication US20070093449A1, “Novel IV formulation of tipifarnib” (priority 2005, published 2007)
